From patent publication US9750724B2, “Use of an aromatase inhibitor for the treatment of hypogonadism and related diseases” (Mereo BioPharma 2 Limited, priority 2011, dated 2017)
Read-outs that look alike come from different tables or passages of the source.

What was measured:
[1] = target: T1, human placental microsomal aromatase (Homo sapiens, UniProt P11511); conditions: microsomal fraction of human placenta; Batzl-Hartmann et al, 1994; cited from earlier work
T1 construct: from tissue; host or cells: human placenta, microsomal fraction
T1 sequence (P11511 1-503): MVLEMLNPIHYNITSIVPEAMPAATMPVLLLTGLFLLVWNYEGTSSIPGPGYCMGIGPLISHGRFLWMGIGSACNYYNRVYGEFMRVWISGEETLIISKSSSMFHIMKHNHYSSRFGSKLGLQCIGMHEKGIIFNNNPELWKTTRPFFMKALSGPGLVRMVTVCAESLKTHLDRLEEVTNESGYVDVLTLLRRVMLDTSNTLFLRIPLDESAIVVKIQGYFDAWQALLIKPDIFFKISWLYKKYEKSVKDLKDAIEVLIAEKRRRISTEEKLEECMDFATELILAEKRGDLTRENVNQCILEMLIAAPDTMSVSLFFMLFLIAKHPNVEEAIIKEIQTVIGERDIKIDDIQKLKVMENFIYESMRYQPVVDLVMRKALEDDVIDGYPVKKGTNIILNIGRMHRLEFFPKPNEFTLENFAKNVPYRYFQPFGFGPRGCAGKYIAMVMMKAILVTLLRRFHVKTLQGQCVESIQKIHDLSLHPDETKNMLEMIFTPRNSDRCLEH

[2] = previous rat experiments; Batzl-Hartmann 1994, Bhatnagar 1996; cited from earlier work
[3] = Human ADME study, single oral dose of 1 mg 14C-CGP47645 in healthy postmenopausal women; assay type: in vivo
Source text: The study was a single dose, single group, open label ADME study of 8 healthy postmenopausal women. […] The study design consisted of a 28-day screening period, one baseline visit (Day −1), a domiciled period beginning from admission on Day −1 through discharge on Day 7, 2 outpatient visits for PK blood collection on Days 14 (±1) and 21 (±1), 2 subject specific adipose tissue collection visits, and an end-of-study 6 month safety follow-up visit.
The primary goal of this study was to assess the partitioning of CGP47645 into abdominal adipose tissue as a measure of peripheral tissue targeting and to assess whether there may be a longer T½ metabolite, as well as to elucidate the metabolic profile, obtain information on routes of excretion and mass balance. Adipose tissue samples were collected in a sparse sampling protocol, where each subject underwent two collections of adipose tissue, with each subject biopsied at different times.

[4] = Single ascending dose study in women, safety and bone density (DEXA); assay type: in vivo; conditions: single doses 0.01 mg through 20 mg, post-menopausal women
Description: Patients received either 0.1 mg, 1 mg, and 10 mg drug substance containing hard gelatin capsules or appropriate matching placebo capsules.
A minimal toxic dose (MTD) was not reached. […] Table 3 presents the PK parameters based on preliminary analysis of the concentration-time profile obtained from this study.

[5] = Physicochemical properties of the crystalline compound; conditions: crystalline powder
[6] = system: serum testosterone and estradiol; assay: 12 week open label dose-finding study (Part 1) in obese hypogonadotropic hypogonadal men; assay type: in vivo, human
Source text: The study is designed as a 2-part study, with Part 1 being open-label to best determine the appropriate dose levels to use in Part 2, which has a randomized, double-blind, placebo controlled design.
As set out above, this is a two-part study in obese, hypogonadotropic hypogonadal (OHH) men, wherein Part 1 is a single group, open label, non-randomized study establishing appropriate dosing. After all subjects have successfully completed 4 weeks of treatment, they continue for up to a total of 12 weeks of treatment. Then Part 2 follows as a parallel group, randomized, double-blind, placebo-controlled design, for 12 weeks of treatment, with an interim analysis after 4 weeks of treatment. Both Parts of the study have up to a 28 day screening period, a single baseline day, a 12 week treatment period (11 weekly doses), followed by a 3 month follow-up period.
Thus, for Part 1 of the study, it was decided to start with 0.01 mg as the loading dose, assess the testosterone response at 5 or 6 days after a single dose, and adjust the next weekly dose up or down based on the acute testosterone response. The weekly maintenance dose is not expected to exceed 0.5 mg. For at least the first 4 weeks of treatment, subject's sex steroid levels are measured prior to their subsequent dosing. The subsequent dose is the adjusted based on the prior response.
If free testosterone is above normal, the Week 2 dose will be 1/10 (0.001 mg) of the loading dose. If free testosterone is below normal, the Week 2 dose will be ½ of the loading dose (0.005 mg). Subsequent weekly doses are adjusted on a ½ log order to achieve normalization of free testosterone levels.
Assessments and evaluations: The following assessments will be performed during the study: • 1. Background, demographic and administrative assessments • Inclusion/exclusion criteria; Relevant medical history/Current medical conditions • Demography • Physical examination, including digital prostate examination • International Prostate Symptom Score (IPSS) • Hepatitis screen, HIV screen • Alcohol test, Drug screen • Prolactin, ferritin and thyroid stimulating hormone (TSH) • Drug administration: each time study drug is administered • Study Completion information • Comments • 2. Safety and tolerability assessments • Vital signs and body measurements • Body height (BMI will be calculated) • Body weight* • Body temperature • Blood pressure, pulse rate • ECG evaluations • Hematology; Blood chemistry; Urinalysis • Prostate specific antigen (PSA) • Adverse events: from time of first administration of study drug until Study Completion. Adverse events occurring before starting study treatment but after signing the informed consent form are recorded on the Medical History/Current Medical Conditions Case Report Form. • Serious adverse events: from time of consent until 30 days after Study Completion • Concomitant medications/Significant non-drug therapies: Refer to entry criteria and Concomitant medication for details of recording requirements for allowed and restricted medications during the study. • 3. Pharmacokinetic (PK) blood assessments: PK samples will be collected on multiple occasions during the treatment phase of the study. PK assessments will also be collected every 6 weeks during the safety follow-up period. […]

[7] = Pharmacokinetics after oral administration to rats; assay type: in vivo, rat
Source text: In one embodiment, the compound may even show an apparent elimination half-life of at least about 30 days or even at least 35 days. […] The results observed were completely unexpected in view of the previous rat experiments showing a half-life of about a week [Batzl-Hartmann et al, 1994 and Bhatnagar et al, 1996]. This surprising extremely long half-life of the compound in humans gives rise to the particular dosing scheduled of the invention.

[8] = weekly oral doses 0.003 mg to 5 mg

N#Cc1ccc(C(F)(c2ccc(C#N)cc2)n2cncn2)cc1 [CGP47645, 4,4′-[fluoro-(1-H-1,2,4-triazol-1-yl)methylene]bisbenzonitrile]
mode of aromatase inhibition [1]: competitive inhibitor | half-life [2]: about a week | metabolites in plasma ([3]; LSC and LC-MS): No metabolites were detected in plasma | Kp ([3]; female, human, abdominal adipose tissue, oral, 1 mg, postmenopausal women, read-out: accumulation in fat tissue in comparison to exposure in plasma): 1 to 3 | half-life ([3]; female, human, single oral 1 mg, plasma, parent drug, read-out: terminal elimination half-life (converted)): ~28 days | safety and tolerability ([3]; single oral 1 mg 14C-CGP47645): safe and well tolerated | share of renally eliminated radioactivity recovered as unchanged drug ([3]; single oral 1 mg 14C-CGP47645): 16% | share of total radioactivity excreted after 6 days that was renally eliminated ([3]; single oral 1 mg 14C-CGP47645): Approximately 84% | absorption ([3]; single oral 1 mg, healthy postmenopausal women): fast and almost complete absorption | duration of persistent plasma concentrations post-dose ([3]; single oral 1 mg, terminal phase): > 4000 h | main metabolites identified in urine ([3]; three main metabolites): a carbinol derivative and two glucuronides | minimal toxic dose (MTD) [4]: not reached | hygroscopicity [5]: not hygroscopic | tolerability ([6]; 14 obese hypogonadal men, weekly oral doses 0.003 mg to 5 mg, 12 weeks): tolerated CGP47645 well | testosterone normalization (RIA) ([6]; 14 obese hypogonadal men, weekly oral doses 0.003 mg to 5 mg, during treatment): rose in all men individually into the normal range | average serum estradiol at week 12 ([6]; baseline 24±4.9 pg/mL, LC-MS): 18 ± 9.4 pg/mL | average testosterone at week 12 ([6]; baseline 250±22.3 ng/dL, RIA): 550 ± 191.8 ng/dL | average change of testosterone from baseline to week 12 [6, 8]: approximately 2 fold | reduction of serum estradiol (LC-MS) [6, 8]: 30-50% | exposure (AUC) versus dose [7]: proportional to the administered dose | half-life ([7]; rat, in vivo, read-out: T½ (converted)): 3.12 days
